The target in this test is T1, TsPrx1 (Taenia solium, UniProt Q2TP88).
T1 construct: recombinant, pET-23a(+) NdeI/XhoI, E. coli BL21 Codon Plus, His tag (printed as amino terminal), 195 residues, ~22 kDa
Kind of test: NADPH oxidation at […] nm, coupled assay with TsTrx and TcTGR. Format: biochemical. Particulars: 150 μM NADPH, 60 μM TsTrx, 11.2 nM TcTGR, 1.25 μM TsPrx1, pH 7.8, 25 °C.

The values below come from paper PMC11047392, “A Physiological Approach to Explore How Thioredoxin–Glutathione Reductase (TGR) and Peroxiredoxin (Prx) Eliminate H2O2 in Cysticerci of Taenia” (Antioxidants, 2024).

What is called Km is the substrate concentration at which the rate is half of its maximum.

T1 sequence (Q2TP88 entry or part of it): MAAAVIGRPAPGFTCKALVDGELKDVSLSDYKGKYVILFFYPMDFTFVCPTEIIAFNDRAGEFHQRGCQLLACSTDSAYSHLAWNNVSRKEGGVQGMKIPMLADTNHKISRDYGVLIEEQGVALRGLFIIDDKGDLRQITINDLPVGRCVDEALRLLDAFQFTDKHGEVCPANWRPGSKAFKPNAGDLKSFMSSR

As for `CC(C)(C)OO` [t-butyl hydroperoxide], the Michaelis-Menten constant (Km) worked out at 18.1 µM.
